This is an account of results in PMC11192711, “Automated radiosynthesis and preclinical evaluation of two new PSMA-617 derivatives radiolabelled via [^18F]AlF^2+ method” (EJNMMI Radiopharmacy and Chemistry, 2024).

For one data set, the target named is T1, PSMA (Homo sapiens, UniProt Q04609).
T1 construct: expressed in transfected cells; host or cells: PC3-PIP cells (PC3 stably expressing PSMA), fixed with 0.2% glutaraldehyde
Briefly: Competitive cell binding assay on fixed PC3-PIP cells against [^18F]F-PSMA-1007. Particulars: 0.75 nM [^18F]F-PSMA-1007, 60 min room temperature, read-out: inhibition potency toward PMSA (IC50). As to the method:
Competitive cell binding experiments were conducted using PC3-PIP cells, [^18F]F-PSMA-1007, 300 nM PSMA-1007, and 8 different concentrations of PSMA-617-NODA (7) and PSMA-617-RESCA (9) (0, 0.01, 0.1, 1, 10, 100, 1000, 10,000 nM).
For in vitro uptake, the PC3-PIP cell line, which is isogenic to PC3 and stably expresses PSMA(Ghosh et al. [2005]), and PC-3 cell line (PSMA negative) were used. 40.000 PC3-PIP and PC3 cells were seeded in 96-well cell culture plates and at the confluence were fixed adding 100 µl of 0.2% glutaraldehyde in PBS to medium. After 5 min incubation at 37 °C, the cells were washed six times with PBS. Then 200 µl of 0.1 M Glycine in PBS with 0.02% of sodium azide were added. After 5 min, the cells were washed 6 times with PBS and finally 250 µl of 1% BSA in PBS with 0.2% of sodium azide were added. The competitive cell binding assays were performed as follows: PC3-PIP fixed cells were incubated with [^18F]F-PSMA-1007 at a concentration of 0.75 nM in the presence of 8 different concentrations of PSMA-617-NODA (7) and PSMA-617-RESCA (9) (0, 0.01, 0.1, 1, 10, 100, 1000, 10,000 nM) and of 300 nM of PSMA-1007. […] The activity in the supernatants and cell pellets was determined using a gamma counter (1282 Compugamma CS, LKB Wallac, Finland). Cellular uptake was calculated as the percentage of radioactivity in cell pellets. […]

Data set [1] relates to Gli36ΔEGFR tumours-bearing nude mice. The experiment in a line: PET/CT in vivo biodistribution and tumour uptake in orthotopic Gli36ΔEGFR glioma model. Particulars: n = 3; for Bone (SUV mean) / Brain (SUV mean) / Colon (SUV mean) / Gall bladder (SUV mean) / Heart (SUV mean) / Kidney (SUV mean) / Liver (SUV mean) / Lung (SUV mean) / Muscle (SUV mean) / Salivary gland (SUV mean) / Small instestine (SUV mean): Gli36ΔEGFR female nude mice, i.v., PET/CT; for tumour-to-contralateral healthy brain ratio (tumour SUV max/contralateral SUV mean): Gli36ΔEGFR orthotopic glioma, nude mice. As for the experimental part:
Subsequently, we evaluated the uptake of [^18F]F-PSMA-617-NODA ([^18F]1) and [^18F]F-PSMA-617-RESCA ([^18F]2) in an orthotopic glioma model obtained with Gli36ΔEGFR cells in female nude mice. Gli36ΔEGFR tumours-bearing nude mice (n = 3) were injected i.v. with either [^18F]F-PSMA-617-NODA or [^18F]F-PSMA-617-RESCA (~ 3.8 MBq/mouse, ~ 50 pmol for [^18F]1 and ~ 170 pmol [^18F]2). Radiotracer uptake was assessed after 10, 60 and 120 min post injection by whole-body PET/CT acquisitions. Also in nude female mice, a rapid clearance of [^18F]1 in all organs and the same kinetic observed in NSG male mice (Additional file 1: S71A and B) were confirmed. […] It is interesting to note that the uptake of [^18F]1 in kidneys decreased over time in both models (Additional file 1: S71A and B), while the uptake of [^18F]F-PSMA-1007 in NSG model and [^18F]2 in nude female mice model increased (Additional file 1: S71C and D).
Total body biodistribution of [^18F]F-PSMA-1007, [^18F]F-PSMA-617-NODA and [^18F]F-PSMA-617-RESCA was evaluated in vivo using imaging PET/CT. [^18F]F-PSMA-617-NODA uptake was compared to that of the [^18F]F-PSMA-1007 in a PSMA positive prostate tumour xenograft model (LNCaP). [^18F]F-PSMA-617-NODA and [^18F]F-PSMA-617-RESCA uptake were also evaluated using an orthotopic glioma model (Gli36ΔEGFR).
5 × 10^5 Gli36ΔEGFR cells were injected in the right striatum of seven to eight weeks old female nude mice (Envigo RMS s.r.l., Italy) as previously described (Valtorta et al. [2021]). Ten days after mice underwent a T2-weighted Magnetic Resonance Imaging (MRI) using a 7 T small animal magnetic resonance scanner (Bruker, BioSpec 70/30 USR, Paravision 5.1, Germany) to confirm the growth of the tumour. Then, the same mice underwent in vivo biodistribution of [^18F]F-PSMA-617-NODA and [^18F]F-PSMA-617-RESCA, on successive but non-consecutive days, using PET/CT.
Mice were injected into a tail vein with 3.8 ± 0.1 MBq of [^18F]F-PSMA-1007, 4.0 ± 0.2 MBq of [^18F]F-PSMA-617-NODA ([^18F]1) and 3.8 ± 0.1 MBq of [^18F]F-PSMA-617-RESCA ([^18F]2), respectively.
Total body PET/CT acquisitions were performed using PET/CT tomographs dedicated to small animals, X-ß-CUBE (Molecubes, Gent, Belgium) after 10, 60 and 120 min from tracer injection. Each acquisition lasted 30 min and mice were maintained anesthetized (4% isoflurane in induction and 2% in maintenance in air) during acquisition.
Image quantification analysis was performed with PMOD 4.105 software (Zurich, Switzerland). Volumes of interest (VOIs) were drawn on peripheral organs (tumour, thoracic muscle, heart, liver, kidney, salivary glands, lung, small intestine, colon, bone, gall bladder) and on the healthy brain using CT images. For the glioma model, PET/CT images were co-registered to MRI images and two different VOIs were defined: (1) a control VOI covering the healthy left striatum (volume 4 mm^3) was drawn on the axial MR images, adjusted on the other imaging planes and then copied on the PET images of each mouse; (2) a second glioma-covering VOI was drawn in the tumour-affected brain hemisphere and centered on mice lesions.
For quantification, Standardized Uptake Value (SUV) was calculated according to the formula:
SUV = organ concentration activity [MBq/g]/(injected activity [MBq]/animal weight [g]).
The data were expressed as standardized-uptake-values (SUVmean and SUVmax) and as tumour-to-muscle (T/M) and tumour-to-blood (T/B) ratio in PCa model and as tumour-to-contralateral (T/Cl) ratio in glioma model.

Data set [2] can be described thus: Stability in human plasma (HPLC, radio-TLC, pellet/supernatant activity). Format: in vitro ADME. Particulars: ACN precipitation. As to the method:
Stability in plasma was evaluated mixing aliquots of [^18F]1 or [^18F]2 solutions (10 MBq for 2 h incubation and 20 MBq for 4 h incubation samples) with 200 µL of human serum. The mixtures were incubated at 37 °C. Aliquots were taken at 2 h and 4 h. Plasma pellet was precipitated with 200 µL acetonitrile and centrifuged (13,500 rpm, 10 min). The supernatant was removed, and the activity of the supernatant solution and pellet was measured using a dose calibrator (VIK-202 Comecer). The supernatant solution was analyzed injecting in RP-HPLC (diluted 1:5 in water) and Radio-TLC as above described.

The nature of data set [3]: Stability in final solution (analytical HPLC and radio-TLC). Particulars: for release of [^18F]AlF^2+: in solution. The class given is physicochemical. As to the method:
Chemical and radiochemical stability in the final solution were tested by analytical HPLC and radio-TLC (Additional file 1: S37–S41); samples of the purified product were analyzed up to four hours after the end of radiosynthesis, at time intervals of two hours and storing the vial at room temperature.
Stability in solution of [^18F]F-PSMA-617-NODA ([^18F]1) and [^18F]F-PSMA-617-RESCA ([^18F]2) were evaluated injecting in RP-HPLC (for experimental conditions, see sections “(((S)-5-((S)-2-((1R,4S)-4-((4-(4,7-bis(carboxymethyl)-1,4,7-triazonan-1-yl)butanamido)methyl)cyclohexane-1-carboxamido)-3-(naphthalen-2-yl)propanamido)-1-carboxypentyl)carbamoyl)-L-glutamic acid [^18F] aluminium fluoride ([^18F] 1)” and “(((S)-5-((S)-2-((1R,4S)-4-((2-(4-((((1R,2R)-2-(bis(carboxymethyl)amino)cyclohexyl)(carboxymethyl)amino)methyl)phenyl)acetamido)methyl)cyclohexane-1-carboxamido)-3-(naphthalen-2-yl)propanamido)-1-carboxypentyl)carbamoyl)-L-glutamic acid [18F] aluminium fluoride ([18F] 2)”) samples (20 µl) of respective radiopharmaceutical solutions at t = 0 (EOS), after 2 h and after 4 h. Moreover, ≈ 7.5 kBq of [^18F]1 or [^18F]2 solution were deposited on TLC sheet. The TLC was imaged using Cyclone® Plus Phosphor Scanner and software OptiQuant™.

Setting [4] is: [18F]2, 2 h incubation in plasma, total activity incubated 3.91 MBq.
[5] abbreviates: [18F]2, 4 h incubation in plasma, total activity incubated 4.62 MBq.

The structures appear in SMILES notation. Some results are limits rather than exact numbers.

T1 sequence (Q04609 whole entry): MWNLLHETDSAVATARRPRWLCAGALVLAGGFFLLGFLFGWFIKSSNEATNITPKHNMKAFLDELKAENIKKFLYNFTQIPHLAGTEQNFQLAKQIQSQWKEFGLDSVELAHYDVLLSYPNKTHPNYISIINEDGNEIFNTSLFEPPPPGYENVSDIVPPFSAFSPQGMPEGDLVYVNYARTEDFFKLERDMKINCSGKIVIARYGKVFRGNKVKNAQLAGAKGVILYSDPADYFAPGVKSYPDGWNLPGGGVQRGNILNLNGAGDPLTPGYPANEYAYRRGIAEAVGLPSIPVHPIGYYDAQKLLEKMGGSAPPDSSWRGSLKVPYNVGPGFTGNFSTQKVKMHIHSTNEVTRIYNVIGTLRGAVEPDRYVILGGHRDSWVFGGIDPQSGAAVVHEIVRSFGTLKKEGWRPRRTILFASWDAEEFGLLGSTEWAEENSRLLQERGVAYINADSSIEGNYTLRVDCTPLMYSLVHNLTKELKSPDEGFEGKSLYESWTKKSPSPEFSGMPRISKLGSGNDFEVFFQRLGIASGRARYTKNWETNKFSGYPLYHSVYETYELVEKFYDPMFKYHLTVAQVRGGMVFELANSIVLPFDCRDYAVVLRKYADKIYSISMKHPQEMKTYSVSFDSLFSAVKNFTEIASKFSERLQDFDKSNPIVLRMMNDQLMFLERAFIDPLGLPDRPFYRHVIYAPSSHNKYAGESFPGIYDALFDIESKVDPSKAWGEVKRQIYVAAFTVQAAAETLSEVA

As a reminder, the IC50 is the concentration that gives 50% inhibition. For the compound `O=C(O)CC[C@H](NC(=O)N[C@@H](CCCCNC(=O)[C@H](Cc1ccc2ccccc2c1)NC(=O)[C@H]1CC[C@H](CNC(=O)CCCN2CCN(CC(=O)O)CCN(CC(=O)O)CC2)CC1)C(=O)O)C(=O)O` [PSMA-617-NODA, (((S)-5-((S)-2-((1R,4S)-4-((4-(4,7-bis(carboxymethyl)-1,4,7-triazonan-1-yl)butanamido)methyl)cyclohexane-1-carboxamido)-3-(naphthalen-2-yl)propanamido)-1-carboxypentyl)carbamoyl)-L-glutamic acid], the IC50 on PSMA was determined as 64 nM.

`O=C(O)CCC(NC(=O)NC(CCCCNC(=O)C(Cc1ccc2ccccc2c1)NC(=O)C1CCC(CNC(=O)Cc2ccc(CN(CC(=O)O)C3CCCCC3N(CC(=O)O)CC(=O)O)cc2)CC1)C(=O)O)C(=O)O.[18F][Al]` [[^18F]F-PSMA-617-RESCA, (((S)-5-((S)-2-((1R,4S)-4-((2-(4-((((1R,2R)-2-(bis(carboxymethyl)amino)cyclohexyl)(carboxymethyl)amino)methyl)phenyl)acetamido)methyl)cyclohexane-1-carboxamido)-3-(naphthalen-2-yl)propanamido)-1-carboxypentyl)carbamoyl)-L-glutamic acid [^18F] aluminium fluoride]: in data set [1] (10 min p.i.), the “Bone (SUV mean)” value is 0.21 ± 0.03, the “Brain (SUV mean)” value was found to be 0.09 ± 0.02, the “Colon (SUV mean)” value was 0.29 ± 0.23 and the “Gall bladder (SUV mean)” value is 3.28 ± 3.18. Further, in data set [1] (10 min p.i.), the “Heart (SUV mean)” value is on record as 0.35 ± 0.05, the “Kidney (SUV mean)” value came to 6.92 ± 1.16, the “Liver (SUV mean)” value was determined as 0.98 ± 0.15 and the “Lung (SUV mean)” value is on record as 0.31 ± 0.01. Also, in data set [1] (10 min p.i.), the “Muscle (SUV mean)” value is 0.19 ± 0.05, the “Salivary gland (SUV mean)” value is reported as 0.54 ± 0.14 and the “Small instestine (SUV mean)” value is given as 1.99 ± 1.44. In addition, in data set [1] (60 min p.i.), the “Bone (SUV mean)” value is listed as 0.20 ± 0.07, the “Brain (SUV mean)” value was found to be 0.07 ± 0.02, the “Colon (SUV mean)” value turned out to be 0.78 ± 1.05 and the “Gall bladder (SUV mean)” value was 5.22 ± 4.23. In data set [1] (60 min p.i.), the “Heart (SUV mean)” value was found to be 0.17 ± 0.03, the “Kidney (SUV mean)” value is listed as 10.21 ± 0.80, the “Liver (SUV mean)” value is 0.65 ± 0.22 and the “Lung (SUV mean)” value was found to be 0.19 ± 0.04. Moreover, in data set [1] (60 min p.i.), the “Muscle (SUV mean)” value was found to be 0.12 ± 0.02, the “Salivary gland (SUV mean)” value is reported as 0.45 ± 0.10, the “Small instestine (SUV mean)” value worked out at 3.07 ± 1.02 and the “tumour-to-contralateral healthy brain ratio (tumour SUV max/contralateral SUV mean)” value is given as 2.93 ± 1.23. Besides, in data set [1] (120 min p.i.), the “Bone (SUV mean)” value is on record as 0.15 ± 0.11, the “Brain (SUV mean)” value is given as 0.07 ± 0.01, the “Colon (SUV mean)” value was 3.87 ± 5.37 and the “Gall bladder (SUV mean)” value was determined as 5.07 ± 4.26. Further, in data set [1] (120 min p.i.), the “Heart (SUV mean)” value worked out at 0.11 ± 0.03, the “Kidney (SUV mean)” value is given as 10.64 ± 1.25, the “Liver (SUV mean)” value was determined as 0.30 ± 0.11 and the “Lung (SUV mean)” value is recorded as 0.12 ± 0.03. Also, in data set [1] (120 min p.i.), the “Muscle (SUV mean)” value was 0.11 ± 0.04, the “Salivary gland (SUV mean)” value stood at 0.28 ± 0.10, the “Small instestine (SUV mean)” value turned out to be 5.79 ± 2.07 and the “tumour-to-contralateral healthy brain ratio (tumour SUV max/contralateral SUV mean)” value was found to be 2.93 ± 0.08. In data set [2] (setting [4]), the Pellet activity is given as 0.45 MBq and the Supernatant activity stood at 3.46 MBq. In data set [2] (setting [5]), the Pellet activity was determined as 0.57 MBq and the Supernatant activity came out at 4.05 MBq. In addition, the “amount of free [^18F]AlF^2+ in solution” value in data set [3] (approximately 85 min after EOS (time of injection), supposed) is less than 5%. The “release of [^18F]AlF^2+” value in data set [3] (after 2 h of incubation at room temperature) is 4.9%. Moreover, the “release of [^18F]AlF^2+” value in data set [3] (at EOS) was determined as 1.2%. Further, in data set [3] (room temperature, after 4 h), the “release of [^18F]AlF^2+” value is 10%.
